Assay: xn = mol fraction of the nth substance listed
Details: for surface tension liquid-gas: Ring tensiometer; for mass density / viscosity: 100.8 kPa, Liquid

OCCc1ccccc1 [2-phenylethanol] + CC(C)O
Details	mass density, 298.15 K [kg/m3]	mass density, 308.15 K [kg/m3]	surface tension liquid-gas, 298.15 K [mN/m]	surface tension liquid-gas, 308.15 K [mN/m]	viscosity, 298.15 K [mPa·s]	viscosity, 308.15 K [mPa·s]
x2 = 0	1016.2	1008.63	39.43	38.93	11.4	7.518
x2 = 0.05	1009.41	1002.31	38.1	37.7	10.66	7.05
x2 = 0.1	1002.07	994.92	36.9	36.58	9.933	6.594
x2 = 0.15	994.41	986.76	35.8	35.47	9.256	6.148
x2 = 0.2	986.36	978.65	34.7	34.38	8.618	5.726
x2 = 0.25	977.95	–	33.63	33.28	8	–
x2 = 0.3	969.14	–	32.61	32.23	7.407	–
x2 = 0.35	959.91	–	31.6	31.19	6.858	–
x2 = 0.4	950.21	–	30.6	30.17	6.35	–
x2 = 0.45	940.02	–	29.6	29.16	5.862	–
x2 = 0.5	929.31	–	28.62	28.16	5.412	–
x2 = 0.55	918.04	–	27.65	27.17	4.978	–
x2 = 0.6	906.21	–	26.7	26.2	4.571	–
x2 = 0.65	893.62	–	25.8	25.3	4.173	–
x2 = 0.7	880.35	–	24.98	24.48	3.793	–
x2 = 0.75	866.25	–	24.2	23.68	3.438	–
x2 = 0.8	851.34	–	23.45	22.9	3.101	–
x2 = 0.85	835.47	–	22.75	22.2	2.808	–
x2 = 0.9	818.57	–	22.1	21.5	2.541	–
x2 = 0.95	800.54	–	21.5	20.8	2.281	–

From the NIST ThermoML archive (doi:10.1021/je700140j)
